What is called pEC50 is the EC50 on a negative log10 scale, so that one unit is a factor of ten.

pEC50: −log10 of the molar value.

This note sets out measurements from BindingDB's records for doi:10.1016/S0960-894X(97)00421-6 (1997).

The target of the assay is Growth hormone secretagogue receptor type 1 (Rattus norvegicus) (UniProt O08725). As to the kind of experiment: Ability to release growth hormone in a rat pituitary cell assay.
Chain of Growth hormone secretagogue receptor type 1 (Rattus norvegicus) (O08725 whole entry, looked up): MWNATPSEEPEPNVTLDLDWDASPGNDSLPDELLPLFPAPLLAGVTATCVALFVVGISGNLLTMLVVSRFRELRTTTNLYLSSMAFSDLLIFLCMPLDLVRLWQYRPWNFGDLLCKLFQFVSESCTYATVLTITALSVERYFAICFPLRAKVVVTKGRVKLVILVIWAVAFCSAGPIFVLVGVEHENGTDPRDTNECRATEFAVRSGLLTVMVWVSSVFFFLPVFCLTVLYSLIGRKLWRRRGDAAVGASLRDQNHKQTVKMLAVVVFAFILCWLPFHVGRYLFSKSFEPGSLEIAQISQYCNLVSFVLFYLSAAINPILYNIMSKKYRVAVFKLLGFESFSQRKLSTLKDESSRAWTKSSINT
The molecule `CCOC(=O)C[C@@H]1CC2(CCN(C(=O)[C@@H](CCCc3ccccc3)NC(=O)C(C)(C)N)CC2)c2ccccc21` showed a negative-log EC50 (pEC50) of 9.10. Under `CCOC(=O)CCC1CC2(CCN(C(=O)[C@@H](CCCc3ccccc3)NC(=O)C(C)(C)N)CC2)c2ccccc21` (stereo partly drawn) stands 8.89.

Molecule `CCOC(=O)[C@H]1CC2(CCN(C(=O)[C@@H](COCc3ccccc3)NC(=O)C(C)(C)N)CC2)c2ccccc21` gave a pEC50 of 8.54. Under `CCOC(=O)C[C@H]1CC2(CCN(C(=O)[C@@H](Cc3c[nH]c4ccccc34)NC(=O)C(C)(C)N)CC2)c2ccccc21` stands 7.55; under `CC(C)(N)C(=O)N[C@H](CCCc1ccccc1)C(=O)N1CCC2(CC1)C[C@@H](CC(=O)O)c1ccccc12`, 8.72; under `CC(C)(N)C(=O)N[C@H](CCCc1ccccc1)C(=O)N1CCC2(CC1)C[C@H](CC(=O)O)c1ccccc12`, 8.64. For the molecule `CC(C)(N)C(=O)N[C@H](CCCc1ccccc1)C(=O)N1CCC2(CC1)C[C@@H](C(=O)O)c1ccccc12`, the pEC50 was 8.60. On to `CCOC(=O)[C@@H]1CC2(CCN(C(=O)[C@@H](CCCc3ccccc3)NC(=O)C(C)(C)N)CC2)c2ccccc21`, for which the pEC50 is 8.70. With `C[C@@H](O)CNC(C)(C)CC(=O)N[C@@H]1CCc2ccccc2N(Cc2ccc(-c3ccccc3-c3nnn[nH]3)cc2)C1=O` [L-692585] the figure was 8.52; with `CC(C)(N)C(=O)N[C@@H](CCCc1ccccc1)C(=O)N1CCC2(CCc3ccccc32)CC1`, 8.00; with `CCOC(=O)C[C@H]1CC2(CCN(C(=O)[C@@H](CCCc3ccccc3)NC(=O)C(C)(C)N)CC2)c2ccccc21`, 9.00.

Molecule `CC(C)(N)CC(=O)N[C@@H]1CCc2ccccc2N(Cc2ccc(-c3ccccc3-c3nnn[nH]3)cc2)C1=O` [3-Amino-3-methyl-N-{2-oxo-1-[2'-(1H-tetrazol-5-yl)-biphenyl-4-ylmethyl]-2,3,4,5-tetrahydro-1H-benzo[b]azepin-3-yl}-butyramide] showed a pEC50 of 7.22. `CCOC(=O)[C@H]1CC2(CCN(C(=O)[C@@H](Cc3c[nH]c4ccccc34)NC(=O)C(C)(C)N)CC2)c2ccccc21` gave a pEC50 of 8.22. Under `CC(C)(N)C(=O)N[C@H](CCCc1ccccc1)C(=O)N1CCC2(CC1)C[C@H](C(=O)O)c1ccccc12` stands 8.68; under `CCOC(=O)[C@@H]1CC2(CCN(C(=O)[C@@H](COCc3ccccc3)NC(=O)C(C)(C)N)CC2)c2ccccc21`, 8.18; under `CC(C)(N)C(=O)N[C@H](CCCc1ccccc1)C(=O)N1CCC2(CC1)CC(CCC(=O)O)c1ccccc12` (stereo partly drawn), 8.60. With `CC(C)(N)C(=O)N[C@H](COCc1ccccc1)C(=O)N1CCC2(CC1)C[C@H](C(=O)O)c1ccccc12` the figure was 8.36. With `CCOC(=O)C[C@@H]1CC2(CCN(C(=O)[C@@H](Cc3c[nH]c4ccccc34)NC(=O)C(C)(C)N)CC2)c2ccccc21` the figure was 8.15; with `CCOC(=O)[C@H]1CC2(CCN(C(=O)[C@@H](CCCc3ccccc3)NC(=O)C(C)(C)N)CC2)c2ccccc21`, 9.00.

Consider `CCOC(=O)[C@@H]1CC2(CCN(C(=O)[C@@H](Cc3c[nH]c4ccccc34)NC(=O)C(C)(C)N)CC2)c2ccccc21`, for which the pEC50 was 8.08.

Take `CC(C)(N)C(=O)N[C@H](Cc1c[nH]c2ccccc12)C(=O)N1CCC2(CCc3ccccc32)CC1` [L-162752]: the pEC50 is 7.85. The molecule `CC(C)(N)C(=O)N[C@H](Cc1c[nH]c2ccccc12)C(=O)N1CCC2(CC1)C[C@@H](CC(=O)O)c1ccccc12` gave a pEC50 of 8.24. Under `CC(C)(N)C(=O)N[C@H](COCc1ccccc1)C(=O)N1CCC2(CCc3ccccc32)CC1` stands 7.77.
